Test results: US20070155827A1, “USE OF BENZO-FUSED HETEROCYCLE SULFAMIDE DERIVATIVES FOR THE TREATMENT OF DEPRESSION” (priority 2005, published 2007)
Entries after “also recorded” stand apart in the source; their conditions may differ.

System: submissive rats
Experiment: Dominant-Submissive Relations (DSR) assay: Reduction of Submissive Behavior Model (RSBM) of depression
Type: in vivo, Male Sprague Dawley rats
Protocol: The DSR assay is divided into two models: Reduction of Dominant Behavior Model (RDBM) of mania and Reduction of Submissive Behavior Model (RSBM) of depression. The RDBM, wherein the dominant animals are treated with test compound, is predictive of the ability of the test compound to treat mania. The RSBM, wherein the submissive animals are treated with test compound, is predictive of the ability of the test compound to treat depression.
Male Sprague Dawley rats (140 to 160 g) from Charles River Laboratories Wilmington, Mass. were used in this assay. Shipments of rats were received at two-week intervals. Each shipment went through five-day quarantine, one-week acclimation period, and one-week selection process, followed by five-weeks of drug or vehicle treatment to those pairs selected.
Rats were housed four per cage. Access to food was restricted to one hour per day after testing on Monday through Thursday. After testing on Friday, rats had free access to food until being fasted again on Sunday. At no time were the rats deprived of water. The food deprivation periods used had little effect on weight gain as the average weight of rats was about 300 g at the end of the study. At the conclusion of experiment rats were sacrificed by decapitation, the trunk blood and brains were collected for in vitro experiments and drug concentration measurements.
The basic testing apparatus consisted of two chambers connected with a tunnel only large enough to allow one rat to pass through at a time. On the floor, at the mid-point of the tunnel was a container of sweetened milk. This basic apparatus was replicated, so that a total of four pairs of rats can be video tracked simultaneously. The camera can distinguish rats marked by different colors. Thus, the rats' heads were colored for the purpose of video tracking, red in one cage and yellow in the other cage. Only one animal at a time can have comfortable access to the feeder, but both animals can drink milk during the five-minute daily session. During the five-minute daily sessions, time spent in the feeder zone by each rat was recorded by the video tracking software and saved into a text file.
The test began with a random assignment of rats into pairs. Each member of a pair was placed in an opposite chamber of the testing apparatus. The time spent in the feeder zone by each animal was recorded. During the first week (five days) of testing the animals habituate to the new environment. Dominance was assigned to the animal with the highest score during the second week of testing if three criteria were achieved. First, there must have been a significant difference (two-tailed t-test, P<0.05) between the average daily drinking scores of both animals. Second, the dominant animal score must have been at least 25% greater than the submissive animal's score. Finally, there must have been no “reversals” during the pair selection week where the putative submissive rat out-scored its dominant partner on isolated occasions. Ideally there were minimal reversals during the acclimation week as well. About twenty-five to thirty-three percent of the initial animal pairs achieved these criteria and only these pairs were continued in the study.
Significant differences between time spent on the feeder by dominant and submissive rats were determined by ANOVA using GraphPad Prism software (GraphPad Software, Inc. San Diego, Calif.) followed by a two-tailed t-test (P<0.05). Comparisons were made between treatment groups using normalized dominance level values in paired animals. The dominance level is a value that measures social relation between paired subjects. Dominance level (DL)=FTD−FTS where FTD is the feeder time of dominant rats and FTS is the feeder time of submissive rats. The normalization was conducted according to the formula: Dominance Level (week n in %)=(Dominance Level (week n))/(Dominance Level (week 2) […]

In the case of `NS(=O)(=O)NC[C@H]1COc2cc(Cl)ccc2O1` [Compound #8, (2S)-(−)-N-(6-Chloro-2,3-dihydro-benzo[1,4]dioxin-2-ylmethyl)-sulfamide], the “Dominance Level (DL) values vs vehicle control” value (2.5 mg/kg p.o.) is reported as “did not significantly differ from control”, the “consistent loss of significance between dominant and submissive rats feeder time” value (2.5 mg/kg p.o.) is reported as “no consistent loss of significance” and the “Dominance Level (DL) values vs vehicle control” value (12.0 mg/kg p.o.) is reported as “significantly different from vehicle treated controls after the second, fourth and fifth week of treatment”. For the same compound, the “Dominance Level (DL) values vs vehicle control” value (60 mg/kg p.o.) was “significant difference in DL values relative to vehicle starting at the first week and continuing through the treatment duration of 5 weeks”, the “difference in DL values with fluoxetine treated group” value (60.0 mg/kg p.o. vs fluoxetine 10 mg/kg) was “statistically significant at p<0.001 after first week and p<0.05 after second week of treatment” and the “Dominance Level (DL) values vs vehicle control” value (120 mg/kg p.o.) was “significantly different from the control group after first week, however, this significance dissipated after the second week of treatment”. For the same compound, the “consistent loss of significance between dominant and submissive rats feeder time” value (120.0 mg/kg p.o.) was “no consistent loss of significance”, the “loss of significant difference between dominant and submissive rats” value (Compound #8 p.o., all doses used (2.5, 12, 60, 120 mg/kg)) was “lost after the first week of treatment” and the “increased submissiveness during first week of treatment (effect seen with fluoxetine)” value (Compound #8 treated groups, p.o.) was “did not show this effect”. For the same compound, the ED50 (Rattus norvegicus, po, RSBM, calculated) was 6.6 ± 0.8 mg/kg and the “reduction of submissive behavior” value (p.o. once a day for 5 weeks to submissive rats, 2.5-120 mg/kg) was “reduce submissive behavior in a dose-dependent manner; also recorded: reduced submissive behavior”.
